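Cells were grown in 96-well plates and exposed to each compound for 48 hours at five concentrations; endpoints were interpolated linearly between bracketing concentrations, or set to the highest concentration if not reached. The concentration for 50% growth inhibition is given as GI50. Definition used: TGI = concentration required for complete inhibition of growth.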
How the values were obtained:
Experiment in all cases: DTP human tumour cell line panel, 48 h
OVCAR-5 ovarian = tested on: OVCAR-5 ovarian
OVCAR-3 ovarian = tested on: OVCAR-3 ovarian
OVCAR-8 ovarian = tested on: OVCAR-8 ovarian
U251 CNS = tested on: U251 CNS
MDA-MB-231 breast = tested on: MDA-MB-231 breast
A549 NSCLC = tested on: A549 NSCLC
UACC-257 melanoma = tested on: UACC-257 melanoma
NCI-H522 lung = tested on: NCI-H522 lung
SF-268 CNS = tested on: SF-268 CNS
TK-10 renal = tested on: TK-10 renal

Structure (SMILES) | GI50 (OVCAR-5 ovarian) [µM] | TGI (OVCAR-5 ovarian) [µM] | GI50 (OVCAR-3 ovarian) [µM] | TGI (OVCAR-3 ovarian) [µM] | GI50 (OVCAR-8 ovarian) [µM] | TGI (OVCAR-8 ovarian) [µM] | GI50 (U251 CNS) [µM] | TGI (U251 CNS) [µM] | GI50 (MDA-MB-231 breast) [µM] | TGI (MDA-MB-231 breast) [µM] | GI50 (A549 NSCLC) [µM] | TGI (A549 NSCLC) [µM] | GI50 (UACC-257 melanoma) [µM] | TGI (UACC-257 melanoma) [µM] | GI50 (NCI-H522 lung) [µM] | TGI (NCI-H522 lung) [µM] | GI50 (SF-268 CNS) [µM] | TGI (SF-268 CNS) [µM] | GI50 (TK-10 renal) [µM] | TGI (TK-10 renal) [µM]
CCC(Sc1nnc2c3ccccc3n(CC)c2n1)C(=O)Nc1ccccc1OC (stereo not given) | 1.94 | 11.7 | 8.49 | > 79.4 | > 100 | > 100 | > 100 | > 100 | 52.5 | > 100 | 6.4 | > 100 | > 100 | > 100 | > 100 | > 100 | > 100 | > 100 | > 100 | > 100
CN1CCN(c2ccc3c4c(cccc24)C(=O)N(CCN2CCN(CCCN4CCN(CCN5C(=O)c6cccc7c(N8CCN(C)CC8)ccc(c67)C5=O)CC4)CC2)C3=O)CC1 | 5.79 | 11.9 | 8.2 | 15.8 | 2.99 | 10.7 | 7.43 | 14.3 | 6.33 | 13 | 7.37 | 15 | 10.2 | 18.4 |  |  | 4.57 | 47.5 | 9.38 | 21.1
Cn1c(=O)cc2c3c(c(NCCCO)ccc31)C(=O)c1ccccc1-2 | 32.8 | > 100 | 5.69 | > 100 | 1.48 | > 100 | 2.6 | > 100 | 4.77 | > 100 | 3.48 | > 100 | 5.37 | > 100 | 2.5 | > 100 | 6.75 | > 100 |  | 
CCCNCc1nc2ccc(Br)cc2c(=O)n1CCC |  |  |  | 32.5 |  | 26.7 |  | 26.3 |  |  |  | 35 |  | 26 |  | 26.8 |  | 26.9 |  | 
N=C(N)SCCc1cn2ccccc2n1 |  | > 100 |  | > 100 |  | > 100 |  | > 100 |  |  |  | > 100 |  | > 100 |  | > 100 |  | > 100 |  | > 100
CC1=CC(C)(C)N=C2SC(c3ccc(Cl)cc3)=NN12 |  | 53.7 |  | 92.1 |  |  |  | 90.9 |  |  |  | > 100 |  | > 100 |  | 46.4 |  | > 100 |  | > 100
O=C1CCCC/C1=C/C=C/c1ccccc1 |  | > 100 |  | > 100 |  | > 100 |  | > 100 |  |  |  | > 100 |  | > 100 |  | 61.2 |  | > 100 |  | > 100
CC(C)C(=O)N[C@@H](C)C(=O)N(Cc1ccc2ccccc2c1)N=O |  | > 100 |  | > 100 |  | > 100 |  | > 100 |  |  |  | > 100 |  | > 100 |  |  |  | > 100 |  | > 100
CCCCCCCCCCCC(=O)OCC1OC(n2cc(F)c(=O)[nH]c2=O)C(N)C(OC(=O)CCCCCCCCCCC)C1O (stereo not given) |  |  |  | > 100 |  | > 100 |  | > 100 |  |  |  | > 100 |  | > 100 |  | > 100 |  | > 100 |  | > 100
